Results: paper PMC2692652 (Biochemistry, 2009)

Tests used:
[1] = target: Human PGDH (Homo sapiens, UniProt O43175); test: Inhibition of human PGDH; type: biochemical; conditions: unpublished observation
[2] = target: T1, Native M. tb PGDH (Mycobacterium tuberculosis, UniProt P9WNX3); type: biochemical; conditions: high HPAP level where substrate inhibition is significant, pH 7.5
[3] = tested on: M. tb PGDH; conditions: cited from earlier work
[4] = target: T1, Native M. tb PGDH; test: Stopped-flow time course of NADH turnover with kinetic simulation to Scheme 2; type: biochemical; conditions: for k+i / k-i: from simulation
[5] = target: T1, Native M. tb PGDH; type: biochemical; conditions: HPAP 400 μM, NADH varied, 200 mM potassium phosphate, pH 7.5
[6] = tested on: M. tb PGDH; conditions: cited from earlier work; remark: listed apart in the source
[7] = target: M. tb PGDH; test: Transient binding of NADH to the enzyme in the absence of substrate; parameters: species or system Mycobacterium tuberculosis; conditions: read-out: Kd of NADH at the second (anion-binding) site; calculated from the rates of NADH binding determined in the absence of substrate
[8] = target: T1, Native M. tb PGDH; type: binding; conditions: no substrate, excitation 295 nm, fluorescence 420 nm, pH 7.5
[9] = target: T1, Native M. tb PGDH; conditions: read-out: Ki, HPAP (substrate inhibition); cited from earlier work
[10] = step ES + N = ESN (NADH to active site)
[11] = step ES + N = NES (NADH to second site)
[12] = step ESN + N = NESN (NADH to second site)
[13] = step SES + N = SESN (NADH to active site)

T1 sequence (P9WNX3 whole entry): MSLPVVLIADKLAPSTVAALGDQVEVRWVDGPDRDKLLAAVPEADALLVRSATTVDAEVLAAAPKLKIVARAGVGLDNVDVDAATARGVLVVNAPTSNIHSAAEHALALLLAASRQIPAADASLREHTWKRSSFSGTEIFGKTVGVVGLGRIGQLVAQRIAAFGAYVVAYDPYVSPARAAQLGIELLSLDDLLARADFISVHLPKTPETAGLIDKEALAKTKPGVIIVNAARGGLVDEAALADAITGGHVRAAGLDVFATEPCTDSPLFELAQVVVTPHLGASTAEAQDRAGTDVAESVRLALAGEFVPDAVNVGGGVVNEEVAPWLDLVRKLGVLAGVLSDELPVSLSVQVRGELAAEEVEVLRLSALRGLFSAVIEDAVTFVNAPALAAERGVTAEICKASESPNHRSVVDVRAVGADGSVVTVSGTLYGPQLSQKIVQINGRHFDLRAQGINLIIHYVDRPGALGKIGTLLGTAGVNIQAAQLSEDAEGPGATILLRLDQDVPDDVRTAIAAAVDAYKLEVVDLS
Chain of Human PGDH (O43175 whole entry): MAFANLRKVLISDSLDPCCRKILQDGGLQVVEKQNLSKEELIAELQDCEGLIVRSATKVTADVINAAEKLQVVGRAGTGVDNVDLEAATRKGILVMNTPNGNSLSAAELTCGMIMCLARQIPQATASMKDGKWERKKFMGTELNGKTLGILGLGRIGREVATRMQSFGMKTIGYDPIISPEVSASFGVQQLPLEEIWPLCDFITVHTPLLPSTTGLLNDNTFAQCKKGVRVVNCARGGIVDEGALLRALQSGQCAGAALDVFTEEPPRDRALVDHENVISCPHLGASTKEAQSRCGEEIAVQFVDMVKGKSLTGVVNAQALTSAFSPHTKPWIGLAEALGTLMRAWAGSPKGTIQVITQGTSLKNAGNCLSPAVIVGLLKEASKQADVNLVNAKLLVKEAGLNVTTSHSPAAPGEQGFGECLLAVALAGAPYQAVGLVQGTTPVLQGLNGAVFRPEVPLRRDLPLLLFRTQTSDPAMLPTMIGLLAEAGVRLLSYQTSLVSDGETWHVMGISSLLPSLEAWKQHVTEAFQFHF

## N[C@@H](CO)C(=O)O [L-serine]
[1]
  Inhibition by L-serine: not inhibited
[2]
  n (Hill coefficient), serine inhibition, High Substrate: 1.5 ± 0.1

## O=C(O)C(O)C(O)C(=O)O (stereo not shown) [tartrate]
[3]
  Effect of tartrate binding to the anion-binding site on rate of catalysis: does not effect the rate of catalysis

## NADH
[4]; [10]
  k+i: 4.09e+08 M⁻¹ s⁻¹
  k-i: 70 s⁻¹
[4]; [11]
  k+i: 0 M⁻¹ s⁻¹
  k-i: 0 s⁻¹
[4]; [12]
  k+i: 0 M⁻¹ s⁻¹
  k-i: 0 s⁻¹
[4]; step NES + N = NESN (NADH to active site)
  k+i: 7.59e+08 M⁻¹ s⁻¹
[4]; [13]
  k+i: 190000 M⁻¹ s⁻¹
  k-i: 3 s⁻¹
[5]
  K0.5, Activity vs NADH: 106 ± 5 µM
  n (Hill coefficient), Activity vs NADH: 2.5 ± 0.2
[6]
  k+i: 0.37 ^c μM^-1s^-1
  k-i: 0.22 ^c s^-1
[7]
  Kd: ~0.6 µM
[8]
  K0.5, FRET vs NADH: 3.2 ± 0.1 µM
  n (Hill coefficient), FRET vs NADH: 1.6 ± 0.1

## hydroxypyruvic acid phosphate [HPAP]
[4]; read-out: Kd for HPAP at the second (anion-binding) site
  Kd: ~8 µM
[1]
  Substrate inhibition by HPAP: displays substrate inhibition
[9]
  Ki: 950 ± 120 µM
